# Experimental data reported in US12495798B2, “Nicotinamide compound and herbicidal composition comprising compound” (KOREA RESEARCH INSTITUTE OF CHEMICAL TECHNOLOGY, priority 2019, dated 2025).
# Experiments:
# Assay type in all cases: in vivo
# [1] = system: sorghum; assay: Herbicidal activity test against upland field weeds (foliar treatment test); parameters: key to Foliar treatment herbicidal activity, Sorghum: 0 (no control); 100 (complete control); conditions: 50 g ai/ha, scale 0-100; for plant injury at 50 g/ha: Sorghum
# Description: (§1) Experimental Example 1: Herbicidal Activity Test Against Upland Field Weeds (Foliar Treatment Test) Foliar treatment was performed as follows: After filling a square plastic pot having a surface area of 350 cm^2 with horticultural soil, seeds (10˜15 grains) or rootstocks (2 pieces) of 5 kinds of grassy weeds of sorghum, barnyard grass, quack grass, crabgrass, fall panicum, and 5 kinds of broadleaf weeds of black nightshade, indian jointvetch, velvetleaf, cocklebur, bindweed, which had been stored in a low temperature (6° C.), were sown. After growing for a certain period in greenhouse conditions (average temperature 30±5° C., light/dark=14/10 hours), test compound solutions were made by diluting with a preparation solution (including 50% acetone, 0.1% Tween-20) so that the final treatment amount of the test compounds was 50 or 75 g a.i./ha. The prepared test compound solution was used for treating foliage by hand-spraying 14 mL per pot in a fume hood. After the treatment, it was managed under the same greenhouse conditions as above, and after 14 days (after 21 days if necessary), the external symptoms and efficacy were investigated according to the scale of 0 (no control) to 100 (complete control). The results of Table 7 were obtained by evaluating weed control value to the untreated control by conducting visual assessment.
# [2] = system: barnyard grass; assay: as above; conditions: 50 g ai/ha, scale 0-100; for pest or weed control at 50 g/ha: Echinochloa crus-galli
# Description: as §1
# [3] = system: quack grass; assay: as above; parameters: key to Foliar treatment herbicidal activity, quack grass: 0 (no control); 100 (complete control); conditions: 50 g ai/ha, scale 0-100
# Description: as §1
# [4] = system: crabgrass; assay: as above; parameters: key to Foliar treatment herbicidal activity, Crabgrass: 0 (no control); 100 (complete control); conditions: 50 g ai/ha, scale 0-100; for pest or weed control at 50 g/ha: Digitaria sanguinalis
# Description: as §1
# [5] = system: fall panicum; assay: as above; conditions: 50 g ai/ha, scale 0-100; for pest or weed control at 50 g/ha: Panicum dichotomiflorum
# Description: as §1
# [6] = system: black nightshade; assay: as above; parameters: key to Foliar treatment herbicidal activity, black nightshade: 0 (no control); 100 (complete control); conditions: 50 g ai/ha, scale 0-100; for pest or weed control at 50 g/ha: Solanum nigrum
# Description: as §1
# [7] = system: indian jointvetch; assay: as above; conditions: 50 g ai/ha, scale 0-100
# Description: as §1
# [8] = system: velvetleaf; assay: as above; conditions: 50 g ai/ha; for Foliar treatment herbicidal activity, velvet leaf: scale 0-100; for pest or weed control at 50 g/ha: Abutilon theophrasti, scale 0-100, read-out: Foliar treatment herbicidal activity, velvet leaf
# Description: as §1
# [9] = system: cocklebur; assay: as above; conditions: 50 g ai/ha, scale 0-100; for pest or weed control at 50 g/ha: Xanthium strumarium
# Description: as §1
# [10] = system: bindweed; assay: as above; conditions: 50 g ai/ha, scale 0-100
# Description: as §1
# [11] = system: corn; assay: Phytotoxicity test for upland field crops (foliar treatment test); parameters: key: 0 (no harm); 9 (complete withered)
# Description: (§2) Experimental Example 3: Phytotoxicity Test for Upland Field Crops (Foliar Treatment Test)
# (§3) Foliar treatment was performed for grown crops and weeds in a square plastic pot having a surface area of 50 cm^2 filled with horticultural soil. As a fertilizer per pot, 0.5 g of horticultural mixed fertilizer (N:P:K=17:21:17) was treated by mixing in the upper soil. Five kinds of crops such as rice, wheat, corn, soybean, and cotton were sown in each pot, and after growing for a certain period in greenhouse conditions (average temperature 30±5° C., light/dark=14/10 hours), test compound solutions were made by diluting with the diluent (33% acetone, 0.1% Tween-20) so that the final treatment amount of the test compounds was 19˜300 g a.i./ha. The prepared test compound solutions were treated using a spray booth (SB6-016) at a treatment amount of 100 ml per 1 m^2 of treatment area. The treated plants were managed under the same greenhouse conditions as above, and external symptoms and phytotoxicity were investigated 7 and 14 days after treatment (after 21 days if necessary). In the evaluation of the phytotoxicity for the crop, the grade of 0 (no harm) to 9 (complete withered) was used. The results of Table 9 were obtained by evaluating crop phytotoxicity value to the untreated control.
# [12] = system: wheat; assay: as above; parameters: key: 0 (no harm); 9 (complete withered)
# Description: as §2, §3
# [13] = 50 g ai/ha, Corn (7 days after treatment)
# [14] = 50 g ai/ha, Corn (14 days after treatment)
# [15] = 100 g ai/ha, Corn (7 days after treatment)
# [16] = 100 g ai/ha, Corn (14 days after treatment)
# [17] = 50 g ai/ha, Wheat (7 days after treatment)
# [18] = 50 g ai/ha, Wheat (14 days after treatment)
# [19] = 100 g ai/ha, Wheat (7 days after treatment)
# [20] = 100 g ai/ha, Wheat (14 days after treatment)
SMILES,"Foliar treatment herbicidal activity, Sorghum [1]","Foliar treatment herbicidal activity, barnyard grass [2]","Foliar treatment herbicidal activity, quack grass [3]","Foliar treatment herbicidal activity, Crabgrass [4]","Foliar treatment herbicidal activity, Fall panicum [5]","Foliar treatment herbicidal activity, black nightshade [6]","Foliar treatment phytotoxicity, Corn [11, 13]","Foliar treatment phytotoxicity, Corn [11, 14]","Foliar treatment phytotoxicity, Corn [11, 15]","Foliar treatment phytotoxicity, Corn [11, 16]","Foliar treatment phytotoxicity, Wheat [12, 17]","Foliar treatment phytotoxicity, Wheat [12, 18]","Foliar treatment phytotoxicity, Wheat [12, 19]","Foliar treatment phytotoxicity, Wheat [12, 20]",pest or weed control at 50 g/ha [2],pest or weed control at 50 g/ha [5],pest or weed control at 50 g/ha [7],pest or weed control at 50 g/ha [8],pest or weed control at 50 g/ha [9],pest or weed control at 50 g/ha [10],further results
Cn1nnnc1NC(=O)c1ccc(C(F)(F)F)nc1COCc1nc(C(F)F)n(C)n1 [Compound No. 2-123],70,95,40,95,95,98,3,2,4,4,0,0,0,0,–,–,–,–,–,–,"Foliar treatment herbicidal activity, Indian jointvetch [7]: 70; Foliar treatment herbicidal activity, velvet leaf [8]: 70; Foliar treatment herbicidal activity, Cocklebur [9]: 90; Foliar treatment herbicidal activity, Bindweed [10]: 80"
"CCCn1nnnc1NC(=O)c1ccc(C(F)(F)F)nc1COCc1ncn(C)n1 [Compound No. 2-114, 2-(((1-methyl-1H-1,2,4-triazol-3-yl)methoxy)methyl)-N-(1-propyl-1H-tetrazol-5-yl)-6-(trifluoromethyl)nicotinamide]",0,–,–,0,–,–,1,0,2,0,1,0,2,1,60%,40%,20%,70%,90%,80%,pest or weed control at 50 g/ha [3]: 10%; pest or weed control at 50 g/ha [6]: 95%
CCCn1nnnc1NC(=O)c1ccc(C(F)(F)F)nc1COCc1nc(C(F)F)n(C)n1 [Compound No. 2-124],40,90,20,95,90,95,2,1,3,2,0,1,1,1,–,–,–,–,–,–,"Foliar treatment herbicidal activity, Indian jointvetch [7]: 60; Foliar treatment herbicidal activity, velvet leaf [8]: 60; Foliar treatment herbicidal activity, Cocklebur [9]: 80; Foliar treatment herbicidal activity, Bindweed [10]: 70"
"CCn1nnnc1NC(=O)c1ccc(C(F)(F)F)nc1COCc1nc(C(F)(F)F)n(C)n1 [Compound No. 2-119, N-(1-ethyl-1H-tetrazol-5-yl)-2-(((1-methyl-5-(trifluoromethyl)-1H-1,2,4-triazol-3-yl)methoxy)methyl)-6-(trifluoromethyl)nicotinamide]",–,–,–,–,–,–,0,0,0,0,0,0,0,0,95%,90%,60%,50%,90%,80%,plant injury at 50 g/ha [1]: 20%; pest or weed control at 50 g/ha [3]: 30%; pest or weed control at 50 g/ha [4]: 95%; pest or weed control at 50 g/ha [6]: 98%
"C=CCn1nnnc1NC(=O)c1ccc(C(F)(F)F)nc1COCc1nnn(CC)n1 [Compound No. 2-90, N-(1-allyl-1H-tetrazol-5-yl)-2-(((2-ethyl-2H-tetrazol-5-yl)methoxy)methyl)-6-(trifluoromethyl)nicotinamide]",–,–,0,–,–,100,0,0,0,0,0,0,0,0,98%,60%,80%,98%,70%,70%,plant injury at 50 g/ha [1]: 20%; pest or weed control at 50 g/ha [4]: 70%
C#CCn1nnnc1NC(=O)c1ccc(C(F)(F)F)nc1COCc1nc(C(F)(F)F)n(C)n1 [Compound No. 2-122],0,50,30,20,40,95,0,0,0,0,0,0,0,0,–,–,–,–,–,–,"Foliar treatment herbicidal activity, Indian jointvetch [7]: 70; Foliar treatment herbicidal activity, velvet leaf [8]: 50; Foliar treatment herbicidal activity, Cocklebur [9]: 80; Foliar treatment herbicidal activity, Bindweed [10]: 70"
"Cn1nnnc1NC(=O)c1ccc(C(F)(F)F)nc1COCc1nc(S(C)(=O)=O)n(C)n1 [Compound No. 2-132, N-(1-methyl-1H-tetrazol-5-yl)-2-(((1-methyl-5-(methylsulfonyl)-1H-1,2,4-triazol-3-yl)methoxy)methyl)-6-(trifluoromethyl)nicotinamide]",–,–,0,–,–,100,0,0,0,0,3,2,3,2,98%,50%,20%,98%,98%,70%,plant injury at 50 g/ha [1]: 30%; pest or weed control at 50 g/ha [4]: 98%
